Usually Kd stands for the equilibrium constant for the complex coming apart.

The values that follow come from article PMC13163009, “Pyrimethamine Restores KEAP1-Mediated Degradation of Select NRF2 Mutants in Esophageal Squamous Cell Carcinoma” (Cancers, 2026).

The target of assay [1] is T1, KEAP1 (Kelch-like ECH-associated protein 1) (Homo sapiens, UniProt Q14145).
T1 construct: human recombinant KEAP1 (Gln2-Cys624)
As to the kind of experiment: ITC with recombinant full-length KEAP1; SPR showed PYR modestly increases DLG(W24C) peptide binding to the Kelch domain.

For assay [2], the target named is T2, Kelch fragment (Ala321-Glu611 of human KEAP1 protein) (human, UniProt Q14145 321-611, biotinylated (site not stated)).
T2 construct: Kelch-like ECH-associated protein 1 (KEAP1), human, Kelch fragment Ala321-Glu611; printed MW 34,038.03 Da; The printed mass (34,038.03 Da) looks larger than residues 321-611 alone, so extra residues or a tag for biotinylation may be present; also called Kelch domain; Kelch domain fragment of KEAP1; source: expressed in vitro, purified, biotinylated, validated by LC-MS
T2 sequence (Q14145 321-611): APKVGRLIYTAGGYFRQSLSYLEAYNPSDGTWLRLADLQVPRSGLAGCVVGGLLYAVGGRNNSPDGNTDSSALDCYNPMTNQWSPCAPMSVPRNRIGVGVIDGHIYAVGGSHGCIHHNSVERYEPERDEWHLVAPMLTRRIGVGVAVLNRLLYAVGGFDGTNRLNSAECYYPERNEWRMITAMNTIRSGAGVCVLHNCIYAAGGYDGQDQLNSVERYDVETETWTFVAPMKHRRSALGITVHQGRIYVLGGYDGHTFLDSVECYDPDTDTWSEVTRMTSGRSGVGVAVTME
As to the kind of experiment: SPR; Biacore S200; biotinylated Kelch immobilised on a streptavidin chip; DLG peptides as analytes, 2-fold dilutions from 200 uM to 0.39 uM; 30 uL/min, 90 s association, 180 s dissociation; analysis at 15 °C; also run with PYR mixed into the analyte with the DLG peptides. To be noted: both partners purified.

T1 sequence (Q14145 2-624): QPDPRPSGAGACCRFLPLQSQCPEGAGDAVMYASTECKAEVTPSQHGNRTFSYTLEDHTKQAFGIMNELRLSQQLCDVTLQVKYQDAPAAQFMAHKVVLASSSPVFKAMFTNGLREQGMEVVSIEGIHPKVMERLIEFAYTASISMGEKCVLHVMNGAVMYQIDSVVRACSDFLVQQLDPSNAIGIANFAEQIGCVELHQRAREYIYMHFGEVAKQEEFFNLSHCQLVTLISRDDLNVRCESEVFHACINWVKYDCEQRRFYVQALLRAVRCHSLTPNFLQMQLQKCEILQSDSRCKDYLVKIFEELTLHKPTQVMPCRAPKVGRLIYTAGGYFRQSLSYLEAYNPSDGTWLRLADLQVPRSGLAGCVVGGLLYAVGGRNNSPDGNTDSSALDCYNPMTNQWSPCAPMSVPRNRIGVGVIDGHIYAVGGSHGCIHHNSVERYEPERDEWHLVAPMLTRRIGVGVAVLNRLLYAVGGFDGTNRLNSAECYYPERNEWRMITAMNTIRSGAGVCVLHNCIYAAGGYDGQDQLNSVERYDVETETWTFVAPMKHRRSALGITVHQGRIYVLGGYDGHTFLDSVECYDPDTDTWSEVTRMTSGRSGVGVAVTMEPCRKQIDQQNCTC

As for `CCc1nc(N)nc(N)c1-c1ccc(Cl)cc1` [PYR, pyrimethamine], the dissociation constant (Kd) in assay [1] amounted to 13 µM.

B1: DLG^WT peptide (NRF2 residues 17-40) (peptide)
peptide: MDLIDILWRQDIDLGVSREVFDFS
notes: nuclear factor erythroid 2-related factor 2 (NRF2, NFE2L2), residues 17-40 with the DLG motif; also called DLG-containing NRF2 peptide; source: synthetic peptide
For B1, in assay [2], the binding result is on record as “binds”.
